Test results as given in PubChem BioAssay AID256 (DTP/NCI, 2004).
Several values for one entry are separate records, joined by “and”; a condition that tells them apart may be missing. Equal entries are not always repeated. Toxic doses and inconclusive results are not listed. Rule for the calls: active = survival T/C of 150% or more; inactive = T/C below 125% in these data.

Test system: CD2F1 mice, L1210 leukemia ip, survival T/C
Experiment: NCI In Vivo Anticancer Drug Screen. Data for tumor model L1210 Leukemia (intraperitoneal) in CD2F1 (CDF1) mice
Details: higher = longer survival
Summary of the method: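 Read-out first: treated-group measurement over vehicle-control measurement, expressed as a ratio. Animals bore a transplanted tumor line and were dosed with compound or vehicle.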

[1] = endpoint: mean survival time, dose: 100.0 mg/kg/injection, schedule: Q01DX009 (ip), vehicle: saline with Tween-80
[2] = endpoint: mean survival time, dose: 100.0 mg/kg/injection, schedule: Q04DX003 (ip), vehicle: saline with Tween-80
[3] = endpoint: mean survival time, dose: 200.0 mg/kg/injection, schedule: Q01DX009 (ip), vehicle: saline with Tween-80
[4] = endpoint: mean survival time, dose: 200.0 mg/kg/injection, schedule: Q04DX003 (ip), vehicle: saline with Tween-80
[5] = endpoint: mean survival time, dose: 400.0 mg/kg/injection, schedule: Q01DX009 (ip), vehicle: saline with Tween-80
[6] = endpoint: mean survival time, dose: 400.0 mg/kg/injection, schedule: Q04DX003 (ip), vehicle: saline with Tween-80
[7] = endpoint: mean survival time, dose: 50.0 mg/kg/injection, schedule: Q01DX009 (ip), vehicle: saline with Tween-80
[8] = endpoint: mean survival time, dose: 100.0 mg/kg/injection, schedule: Q04DX002 (ip), vehicle: saline with Tween-80
[9] = endpoint: mean survival time, dose: 200.0 mg/kg/injection, schedule: Q04DX002 (ip), vehicle: saline with Tween-80
[10] = endpoint: mean survival time, dose: 400.0 mg/kg/injection, schedule: Q04DX002 (ip), vehicle: saline with Tween-80
[11] = endpoint: mean survival time, dose: 100.0 mg/kg/injection, schedule: Q04DX003 (ip), vehicle: saline
[12] = endpoint: mean survival time, dose: 200.0 mg/kg/injection, schedule: Q04DX003 (ip), vehicle: saline
[13] = endpoint: mean survival time, dose: 25.0 mg/kg/injection, schedule: Q01DX009 (ip), vehicle: saline with Tween-80
[14] = endpoint: mean survival time, dose: 100.0 mg/kg/injection, schedule: Q01DX009 (ip), vehicle: saline
[15] = endpoint: mean survival time, dose: 200.0 mg/kg/injection, schedule: Q01DX009 (ip), vehicle: saline

Measured: T/C

CC(=O)Nc1ccccc1Sc1ccncc1[N+](=O)[O-]
inactive: [1] 100 % of control | [2] 88 % of control | [3] 100 % of control | [4] 92 % of control | [5] 90 % of control | [6] 95 % of control

O=C(CCC(NC(=O)OCc1ccccc1)C(=O)O)OCc1ccccc1 (stereo not given)
inactive: [2] 100 % of control | [4] 101 % of control | [6] 94 % of control

C/C=C/C(O)C1CCCCC1 (stereo not given)
inactive: [7] 103 % of control | [1] 98 % of control | [3] 107 % of control

O=C1OCc2ccccc21
inactive: [8] 96 % of control | [9] 100 % of control | [10] 100 % of control

COc1cc([N+](=O)[O-])ccc1P(=O)(O)O
inactive: endpoint: mean survival time, dose: 50.0 mg/kg/injection, schedule: Q04DX003 (ip), vehicle: saline 101 % of control | [11] 97 % of control | [12] 91 % of control

c1ccc2c(c1)c1ccccc1n2CCCCn1c2ccccc2c2ccccc21
inactive: endpoint: mean survival time, dose: 12.5 mg/kg/injection, schedule: Q01DX009 (ip), vehicle: saline with Tween-80 95 % of control | [13] 87 % of control | [7] 101 % of control and 102 % of control | [1] 97 % of control | [3] 93 % of control

Clc1ccc2[nH]c3nc4ccccc4nc3c2c1
inactive: [14] 106 % of control | [15] 108 % of control

Cc1[nH]nc2c(=O)n(C)cnc12
inactive: endpoint: mean survival time, dose: 12.5 mg/kg/injection, schedule: Q01DX005 (ip), vehicle: water 103 % of control | endpoint: mean survival time, dose: 25.0 mg/kg/injection, schedule: Q01DX005 (ip), vehicle: water 104 % of control | endpoint: mean survival time, dose: 50.0 mg/kg/injection, schedule: Q01DX005 (ip), vehicle: water 98 % of control | endpoint: mean survival time, dose: 100.0 mg/kg/injection, schedule: Q01DX005 (ip), vehicle: water 92 % of control | endpoint: mean survival time, dose: 200.0 mg/kg/injection, schedule: Q01DX005 (ip), vehicle: water 95 % of control

CCOP(=O)(OCC)/C(C#N)=C\c1ccc(OC)c(OC)c1
inactive: [1] 98 % of control | [3] 94 % of control | [5] 100 % of control

O=C(O)C(CCc1ccccc1)N1CCOCC1 (stereo not given)
inactive: [11] 98 % of control | [12] 98 % of control | endpoint: mean survival time, dose: 400.0 mg/kg/injection, schedule: Q04DX003 (ip), vehicle: saline 101 % of control

N#CN=[N+]([O-])c1ccc(C(=O)O)cc1
inactive: endpoint: mean survival time, dose: 1.87 mg/kg/injection, schedule: Q01DX009 (ip), vehicle: Klucel (hydroxypropylcellulose) (HPC) 106 % of control | endpoint: mean survival time, dose: 3.75 mg/kg/injection, schedule: Q01DX009 (ip), vehicle: Klucel (hydroxypropylcellulose) (HPC) 95 % of control | endpoint: mean survival time, dose: 7.5 mg/kg/injection, schedule: Q01DX009 (ip), vehicle: Klucel (hydroxypropylcellulose) (HPC) 95 % of control | endpoint: mean survival time, dose: 15.0 mg/kg/injection, schedule: Q01DX009 (ip), vehicle: Klucel (hydroxypropylcellulose) (HPC) 96 % of control | endpoint: mean survival time, dose: 30.0 mg/kg/injection, schedule: Q01DX009 (ip), vehicle: Klucel (hydroxypropylcellulose) (HPC) 98 % of control | endpoint: mean survival time, dose: 60.0 mg/kg/injection, schedule: Q01DX009 (ip), vehicle: Klucel (hydroxypropylcellulose) (HPC) 106 % of control | endpoint: median survival time, dose: 1.87 mg/kg/injection, schedule: Q01DX009 (ip), vehicle: Klucel (hydroxypropylcellulose) (HPC) 101 % of control | endpoint: median survival time, dose: 3.75 mg/kg/injection, schedule: Q01DX009 (ip), vehicle: Klucel (hydroxypropylcellulose) (HPC) 95 % of control | endpoint: median survival time, dose: 7.5 mg/kg/injection, schedule: Q01DX009 (ip), vehicle: Klucel (hydroxypropylcellulose) (HPC) 95 % of control | endpoint: median survival time, dose: 15.0 mg/kg/injection, schedule: Q01DX009 (ip), vehicle: Klucel (hydroxypropylcellulose) (HPC) 109 % of control | endpoint: median survival time, dose: 30.0 mg/kg/injection, schedule: Q01DX009 (ip), vehicle: Klucel (hydroxypropylcellulose) (HPC) 93 % of control

S=C1NC(/C=C/c2ccccc2)Nc2ccccc21 (stereo not given)
inactive: [2] 91 % of control | [4] 87 % of control

O=Nc1ccc(O)cc1
inactive: endpoint: mean survival time, dose: 50.0 mg/kg/injection, schedule: Q04DX003 (ip), vehicle: saline with Tween-80 100 % of control | [2] 105 % of control and 107 % of control | [4] 95 % of control and 111 % of control

O=[N+]([O-])/C=C/c1ccccc1
inactive: endpoint: mean survival time, dose: 20.0 mg/kg/injection, schedule: Q01DX009 (ip), vehicle: saline with Tween-80 106 % of control | endpoint: mean survival time, dose: 20.0 mg/kg/injection, schedule: Q04DX003 (ip), vehicle: saline with Tween-80 102 % of control | endpoint: mean survival time, dose: 40.0 mg/kg/injection, schedule: Q04DX003 (ip), vehicle: saline with Tween-80 96 % of control | endpoint: mean survival time, dose: 80.0 mg/kg/injection, schedule: Q04DX003 (ip), vehicle: saline with Tween-80 94 % of control

CCCCCCCCCCCCCCCCCCn1cnc2c(Cl)ncnc21
inactive: endpoint: mean survival time, dose: 12.5 mg/kg/injection, schedule: Q01DX005 (ip), vehicle: other 87 % of control | endpoint: mean survival time, dose: 25.0 mg/kg/injection, schedule: Q01DX005 (ip), vehicle: other 91 % of control | endpoint: mean survival time, dose: 50.0 mg/kg/injection, schedule: Q01DX005 (ip), vehicle: other 92 % of control | endpoint: mean survival time, dose: 200.0 mg/kg/injection, schedule: Q01DX005 (ip), vehicle: other 86 % of control

CNc1nc(N)[nH]c(=O)c1N=O
inactive: endpoint: mean survival time, dose: 50.0 mg/kg/injection, schedule: Q04DX002 (ip), vehicle: saline with Tween-80 105 % of control | [8] 102 % of control | [9] 105 % of control

CN(C)c1nc(F)nc2c1ncn2C1OC(CO)C(O)C1O (stereo not given)
inactive: endpoint: mean survival time, dose: 75.0 mg/kg/injection, schedule: Q01DX001 (ip), vehicle: other 100 % of control | endpoint: mean survival time, dose: 150.0 mg/kg/injection, schedule: Q01DX001 (ip), vehicle: other 109 % of control | endpoint: mean survival time, dose: 300.0 mg/kg/injection, schedule: Q01DX001 (ip), vehicle: other 109 % of control

CSCC(N)C(=O)O (stereo not given)
inactive: [14] 103 % of control | [15] 103 % of control | endpoint: mean survival time, dose: 400.0 mg/kg/injection, schedule: Q01DX009 (ip), vehicle: saline 97 % of control

CCOC1=NC(C)(C)CC(C)O1 (stereo not given)
inactive: endpoint: mean survival time, dose: 25.0 mg/kg/injection, schedule: Q01DX009 (ip), vehicle: saline 109 % of control | endpoint: mean survival time, dose: 50.0 mg/kg/injection, schedule: Q01DX009 (ip), vehicle: saline 109 % of control | [14] 103 % of control | [11] 97 % of control

O=C(OCc1ccccc1)OC1C2COC(O2)C(OC(=O)OCc2ccccc2)C1O (stereo not given)
inactive: [1] 95 % of control | [3] 95 % of control | [5] 89 % of control

CCOC/C(O)=C(\C#N)c1ccc(Cl)cc1
inactive: endpoint: mean survival time, dose: 12.5 mg/kg/injection, schedule: Q01DX009 (ip), vehicle: other 94 % of control and 104 % of control | endpoint: mean survival time, dose: 12.5 mg/kg/injection, schedule: Q04DX003 (ip), vehicle: other 104 % of control | endpoint: mean survival time, dose: 25.0 mg/kg/injection, schedule: Q01DX001 (ip), vehicle: other 93 % of control | endpoint: mean survival time, dose: 25.0 mg/kg/injection, schedule: Q01DX009 (ip), vehicle: other 95 % of control and 100 % of control | endpoint: mean survival time, dose: 25.0 mg/kg/injection, schedule: Q04DX002 (ip), vehicle: other 116 % of control and 111 % of control | endpoint: mean survival time, dose: 25.0 mg/kg/injection, schedule: Q04DX003 (ip), vehicle: other 101 % of control | endpoint: mean survival time, dose: 50.0 mg/kg/injection, schedule: Q01DX001 (ip), vehicle: other 100 % of control | endpoint: mean survival time, dose: 50.0 mg/kg/injection, schedule: Q01DX009 (ip), vehicle: other 93 % of control and 95 % of control | endpoint: mean survival time, dose: 50.0 mg/kg/injection, schedule: Q04DX002 (ip), vehicle: other 94 % of control and 99 % of control | endpoint: mean survival time, dose: 50.0 mg/kg/injection, schedule: Q04DX003 (ip), vehicle: other 101 % of control

COc1ccc(NC(=O)Nc2ccccc2F)cc1
inactive: [2] 102 % of control | [4] 101 % of control | [6] 95 % of control

COc1ccccc1N=Nc1c(O)n(-c2ccc(Cl)cc2)c(=S)n(-c2ccccc2)c1=O
inactive: endpoint: mean survival time, dose: 100.0 mg/kg/injection, schedule: Q01DX001 (ip), vehicle: saline with Tween-80 97 % of control | [8] 98 % of control | endpoint: mean survival time, dose: 200.0 mg/kg/injection, schedule: Q01DX001 (ip), vehicle: saline with Tween-80 97 % of control | [9] 94 % of control | endpoint: mean survival time, dose: 400.0 mg/kg/injection, schedule: Q01DX001 (ip), vehicle: saline with Tween-80 103 % of control | [10] 102 % of control

CCCN(CCC)N=Nc1c(C(=O)OC)n[nH]c1C
inactive: [13] 97 % of control | [7] 102 % of control | [1] 104 % of control and 108 % of control | endpoint: mean survival time, dose: 117.0 mg/kg/injection, schedule: Q01DX009 (ip), vehicle: saline with Tween-80 122 % of control | endpoint: mean survival time, dose: 178.0 mg/kg/injection, schedule: Q01DX009 (ip), vehicle: saline with Tween-80 97 % of control
